Data from paper PMC5216056 (Nature Communications, 2017).
Where two headings read alike, the source gives them in different places.

Legend:
hCB2R [1] = molecular target: T1, hCB2R (Homo sapiens, UniProt P34972); test: cell-based; assay type: cell-based; set-up: expressed in transfected cells; host or cells: Flp-In-293 (Invitrogen #R750-07), pcDNA5/FRT
hCB1R = molecular target: T2, hCB1R (Homo sapiens, UniProt P21554); test: cell-based; assay type: cell-based; conditions: for Emax: read-out: Emax ± SEM pERK hCB1R
T2 construct: host or cells: CHO

hCB2R [2] = molecular target: T1, hCB2R; set-up: expressed in transfected cells; host or cells: Flp-In-293 (Invitrogen #R750-07), pcDNA5/FRT; conditions: hCB2R; for ΔLogR GIRK / ΔLogR GTPγS / ΔLogR pERK / ΔLogR β-AR / ΔLogR cAMP: reference CP55940; for RE GIRK / RE GTPγS / RE pERK / RE β-AR / RE cAMP: relative effectiveness
[3] = 1 μM
hGPR55 = molecular target: T3, hGPR55 (Homo sapiens, UniProt Q9Y2T6); test: cell-based
T3 construct: host or cells: CHO-K1 (PathHunter hGPR55_bgal)

Rat recombinant TRPM8 = molecular target: T4, Rat recombinant TRPM8 (Rattus norvegicus, UniProt Q8R455); test: TRP channel [Ca2+]i assay; assay type: cell-based; conditions: read-out: TRPM8 IC50 for antagonism of icilin
T4 construct: expressed in transfected cells; host or cells: HEK293 (TRPM8-HEK-293, gift from Mario van der Stelt)

[4] = test system: AEA cellular uptake in HMC-1 cells; test: cells; assay type: cell-based, human; conditions: Homo sapiens, HMC1, read-out: AEA reuptake IC50 (95% CI) HMC-1 cells
beta 1 (h) = molecular target: T5, beta 1 (h) (Homo sapiens, UniProt P08588); test: biochemical; assay type: binding; conditions: read-out: % inhibition beta 1 (h)
T5 construct: CEREP

Rat recombinant TRPV3 = molecular target: T6, Rat recombinant TRPV3 (Rattus norvegicus, UniProt Q4QYD9); test: cell-based; assay type: cell-based; conditions: for IC50: vs thymol 100μM, read-out: TRPV3 IC50 for antagonism or desensitization
T6 construct: expressed in transfected cells; host or cells: HEK293 (TRPV3-HEK-293, gift from HB Bradshaw, Indiana University)
T6 sequence (Q4QYD9 1-791): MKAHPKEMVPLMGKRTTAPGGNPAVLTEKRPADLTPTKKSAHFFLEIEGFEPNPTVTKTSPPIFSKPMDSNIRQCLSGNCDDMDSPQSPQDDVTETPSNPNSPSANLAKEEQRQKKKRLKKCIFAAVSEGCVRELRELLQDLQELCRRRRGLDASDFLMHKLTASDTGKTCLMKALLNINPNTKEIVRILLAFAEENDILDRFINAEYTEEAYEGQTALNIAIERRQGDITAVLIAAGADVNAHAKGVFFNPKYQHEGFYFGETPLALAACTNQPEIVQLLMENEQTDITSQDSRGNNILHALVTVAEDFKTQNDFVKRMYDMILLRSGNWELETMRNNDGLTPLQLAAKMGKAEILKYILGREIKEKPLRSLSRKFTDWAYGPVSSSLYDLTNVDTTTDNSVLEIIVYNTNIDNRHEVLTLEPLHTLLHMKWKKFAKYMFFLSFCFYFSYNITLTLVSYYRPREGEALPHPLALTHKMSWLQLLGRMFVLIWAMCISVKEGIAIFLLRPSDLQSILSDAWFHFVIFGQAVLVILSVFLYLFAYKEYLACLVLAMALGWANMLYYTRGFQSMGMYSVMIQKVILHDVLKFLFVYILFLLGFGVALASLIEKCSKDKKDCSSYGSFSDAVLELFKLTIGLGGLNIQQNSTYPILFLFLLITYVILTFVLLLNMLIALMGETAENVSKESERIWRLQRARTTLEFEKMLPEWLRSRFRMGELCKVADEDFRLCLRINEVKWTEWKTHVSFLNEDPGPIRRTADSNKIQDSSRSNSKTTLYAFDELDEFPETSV

Rat recombinant TRPV4 = molecular target: T7, Rat recombinant TRPV4 (Rattus norvegicus, UniProt Q9ERZ8); test: cell-based; assay type: cell-based; conditions: for IC50: vs 4αPDD 1μM, read-out: TRPV4 IC50 for desensitization
T7 construct: expressed in transfected cells; host or cells: HEK293 (TRPV4-HEK-293, gift from HB Bradshaw, Indiana University)

mu (MOP) (h) = molecular target: T8, mu (MOP) (h) (Homo sapiens, UniProt P35372); test: CEREP panel; assay type: binding; conditions: read-out: % inhibition mu (MOP) (h)
T8 construct: CEREP (contract assay)

[5] = AtT20; read-out: Emax ± SEM GIRK hCB2R

T2 sequence (P21554 whole entry): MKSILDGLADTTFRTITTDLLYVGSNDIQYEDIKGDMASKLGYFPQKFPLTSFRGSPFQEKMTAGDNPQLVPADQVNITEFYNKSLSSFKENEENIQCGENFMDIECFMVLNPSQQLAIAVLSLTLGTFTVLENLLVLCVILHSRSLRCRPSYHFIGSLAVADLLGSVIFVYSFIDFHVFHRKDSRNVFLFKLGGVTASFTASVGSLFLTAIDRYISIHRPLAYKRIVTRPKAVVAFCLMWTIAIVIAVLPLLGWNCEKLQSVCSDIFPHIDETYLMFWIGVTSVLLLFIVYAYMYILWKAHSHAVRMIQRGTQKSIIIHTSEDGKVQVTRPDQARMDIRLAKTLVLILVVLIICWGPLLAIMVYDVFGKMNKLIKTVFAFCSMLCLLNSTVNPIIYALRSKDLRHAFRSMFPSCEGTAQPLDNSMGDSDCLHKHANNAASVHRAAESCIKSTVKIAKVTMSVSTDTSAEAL
T7 sequence (Q9ERZ8 whole entry): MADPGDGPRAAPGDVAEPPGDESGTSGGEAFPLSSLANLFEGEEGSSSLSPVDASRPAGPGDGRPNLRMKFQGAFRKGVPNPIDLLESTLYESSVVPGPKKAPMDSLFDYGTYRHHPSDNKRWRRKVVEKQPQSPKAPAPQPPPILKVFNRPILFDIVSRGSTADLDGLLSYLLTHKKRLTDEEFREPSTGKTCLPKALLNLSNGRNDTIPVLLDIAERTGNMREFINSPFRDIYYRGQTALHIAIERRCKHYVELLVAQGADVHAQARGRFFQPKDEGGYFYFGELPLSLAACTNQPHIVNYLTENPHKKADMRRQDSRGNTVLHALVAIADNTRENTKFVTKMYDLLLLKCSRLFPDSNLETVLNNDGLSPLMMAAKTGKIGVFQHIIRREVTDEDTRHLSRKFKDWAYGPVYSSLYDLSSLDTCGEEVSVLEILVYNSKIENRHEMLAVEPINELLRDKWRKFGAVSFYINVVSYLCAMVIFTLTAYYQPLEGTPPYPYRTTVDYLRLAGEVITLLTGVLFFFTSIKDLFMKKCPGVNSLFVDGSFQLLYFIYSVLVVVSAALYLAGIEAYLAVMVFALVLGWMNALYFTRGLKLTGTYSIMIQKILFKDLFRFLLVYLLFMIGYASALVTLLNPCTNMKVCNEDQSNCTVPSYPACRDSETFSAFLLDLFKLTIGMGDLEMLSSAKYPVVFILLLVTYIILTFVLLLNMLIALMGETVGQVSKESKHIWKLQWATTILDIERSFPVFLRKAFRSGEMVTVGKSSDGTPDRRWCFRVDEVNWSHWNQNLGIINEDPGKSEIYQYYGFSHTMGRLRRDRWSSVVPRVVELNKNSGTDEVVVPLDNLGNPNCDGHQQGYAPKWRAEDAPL
T1 sequence (P34972 whole entry): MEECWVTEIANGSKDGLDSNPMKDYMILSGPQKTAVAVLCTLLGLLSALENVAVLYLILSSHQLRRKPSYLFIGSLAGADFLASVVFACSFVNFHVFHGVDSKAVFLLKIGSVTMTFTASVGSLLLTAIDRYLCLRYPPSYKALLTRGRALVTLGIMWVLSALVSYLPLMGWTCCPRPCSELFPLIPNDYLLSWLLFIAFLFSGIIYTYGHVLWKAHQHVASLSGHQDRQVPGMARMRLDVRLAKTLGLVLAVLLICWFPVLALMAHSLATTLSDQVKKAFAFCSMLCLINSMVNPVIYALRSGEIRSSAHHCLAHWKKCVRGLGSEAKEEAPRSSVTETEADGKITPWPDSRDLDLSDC
T3 sequence (Q9Y2T6 whole entry): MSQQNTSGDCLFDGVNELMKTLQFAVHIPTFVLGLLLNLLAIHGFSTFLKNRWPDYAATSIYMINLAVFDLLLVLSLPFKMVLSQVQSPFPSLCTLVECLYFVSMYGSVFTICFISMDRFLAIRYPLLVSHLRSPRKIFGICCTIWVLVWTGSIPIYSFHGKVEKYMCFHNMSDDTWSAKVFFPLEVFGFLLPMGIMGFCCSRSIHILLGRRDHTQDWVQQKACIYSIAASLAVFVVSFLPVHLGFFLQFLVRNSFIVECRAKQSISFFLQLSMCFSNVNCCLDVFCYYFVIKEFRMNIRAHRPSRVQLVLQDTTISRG
T4 sequence (Q8R455 whole entry): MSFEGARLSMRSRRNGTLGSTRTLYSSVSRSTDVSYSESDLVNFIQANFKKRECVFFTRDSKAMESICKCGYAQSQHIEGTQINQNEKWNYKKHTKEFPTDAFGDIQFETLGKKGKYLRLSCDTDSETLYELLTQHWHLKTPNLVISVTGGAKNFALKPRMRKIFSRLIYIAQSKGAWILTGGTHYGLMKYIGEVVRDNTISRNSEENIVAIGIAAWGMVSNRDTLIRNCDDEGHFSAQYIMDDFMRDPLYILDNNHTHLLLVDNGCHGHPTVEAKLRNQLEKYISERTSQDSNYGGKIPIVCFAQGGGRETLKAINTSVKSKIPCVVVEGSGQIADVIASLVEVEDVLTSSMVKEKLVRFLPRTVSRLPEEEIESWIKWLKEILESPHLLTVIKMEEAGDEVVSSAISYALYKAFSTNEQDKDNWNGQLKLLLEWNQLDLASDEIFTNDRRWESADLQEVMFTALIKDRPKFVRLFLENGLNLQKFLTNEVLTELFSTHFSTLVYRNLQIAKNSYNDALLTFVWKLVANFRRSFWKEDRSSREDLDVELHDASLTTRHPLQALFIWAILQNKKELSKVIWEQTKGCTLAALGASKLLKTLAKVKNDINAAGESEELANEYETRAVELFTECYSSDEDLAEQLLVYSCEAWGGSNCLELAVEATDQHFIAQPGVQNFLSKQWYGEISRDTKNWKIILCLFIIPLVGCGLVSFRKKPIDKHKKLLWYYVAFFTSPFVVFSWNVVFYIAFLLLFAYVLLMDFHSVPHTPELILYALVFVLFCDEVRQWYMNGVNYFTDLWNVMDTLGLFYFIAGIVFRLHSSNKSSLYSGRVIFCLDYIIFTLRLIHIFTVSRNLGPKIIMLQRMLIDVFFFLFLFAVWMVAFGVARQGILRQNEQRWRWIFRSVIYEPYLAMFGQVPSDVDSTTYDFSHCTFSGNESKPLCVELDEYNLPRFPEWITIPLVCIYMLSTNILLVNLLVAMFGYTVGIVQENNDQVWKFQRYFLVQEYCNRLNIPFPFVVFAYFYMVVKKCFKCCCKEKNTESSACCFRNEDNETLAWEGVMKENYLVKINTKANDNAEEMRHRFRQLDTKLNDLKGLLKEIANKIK
T8 sequence (P35372 whole entry): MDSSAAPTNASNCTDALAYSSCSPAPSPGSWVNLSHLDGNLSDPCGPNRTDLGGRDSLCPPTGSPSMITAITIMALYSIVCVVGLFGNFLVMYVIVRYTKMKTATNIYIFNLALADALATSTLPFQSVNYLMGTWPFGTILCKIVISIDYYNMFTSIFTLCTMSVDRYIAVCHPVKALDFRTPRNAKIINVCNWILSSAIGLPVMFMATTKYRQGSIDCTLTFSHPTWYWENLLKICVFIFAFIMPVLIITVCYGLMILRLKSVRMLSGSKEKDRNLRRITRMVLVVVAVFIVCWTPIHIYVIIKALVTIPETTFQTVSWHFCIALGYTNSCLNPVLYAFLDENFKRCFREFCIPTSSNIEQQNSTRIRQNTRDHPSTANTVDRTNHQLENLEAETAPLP
T5 sequence (P08588 whole entry): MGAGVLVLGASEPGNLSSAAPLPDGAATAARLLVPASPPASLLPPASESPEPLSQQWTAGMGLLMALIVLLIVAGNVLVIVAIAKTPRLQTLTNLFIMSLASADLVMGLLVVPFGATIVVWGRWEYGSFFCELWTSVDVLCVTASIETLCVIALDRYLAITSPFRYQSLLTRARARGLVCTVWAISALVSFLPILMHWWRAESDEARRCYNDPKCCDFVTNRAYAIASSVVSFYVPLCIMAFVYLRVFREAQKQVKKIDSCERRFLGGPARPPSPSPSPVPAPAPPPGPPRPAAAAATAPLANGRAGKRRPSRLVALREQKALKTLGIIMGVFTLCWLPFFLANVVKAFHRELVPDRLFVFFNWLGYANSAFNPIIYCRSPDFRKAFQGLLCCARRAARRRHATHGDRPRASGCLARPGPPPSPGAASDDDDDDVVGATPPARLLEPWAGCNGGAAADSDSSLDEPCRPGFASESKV

## CN1CCCCC1Cn1cc(C(=O)c2cc([N+](=O)[O-])ccc2I)c2ccccc21 (racemic) [(rac)-AM1241]
hCB2R [1]
  pEC50 ± SEM GIRK hCB2R: 5.23 ± 0.21
hCB2R [1]; normalized to CP55940
  Emax ± SEM GIRK hCB2R: 59 ± 14%
hCB1R
  Emax ± SEM pERK hCB1R: 86 ± 3
  pEC50 ± SEM pERK hCB1R: 5.07 ± 0.05
hCB2R [2]
  GIRK-GTPγS bias factor (BF): 1.08
  GIRK-GTPγS ΔΔlogR: 0.03 ± 0.46
  LogR GIRK: 5.52
  LogR GTPγS: 5.9
  LogR pERK: 8.67
  LogR β-AR: 7.95
  pERK-GIRK bias factor (BF): 95.72
  pERK-GIRK ΔΔlogR: 1.98 ± 0.71
  pERK-GTPγS bias factor (BF): 103.28
  pERK-GTPγS ΔΔlogR: 2.01 ± 0.8
  β-AR-GIRK bias factor (BF): 62.37
  β-AR-GIRK ΔΔlogR: 1.8 ± 0.49
  β-AR-GTPγS bias factor (BF): 68.30
  β-AR-GTPγS ΔΔlogR: 1.83 ± 0.61
  β-AR-pERK bias factor (BF): 0.65
  β-AR-pERK ΔΔlogR: -0.19 ± 0.81
  ΔLogR GIRK: -2.35
  ΔLogR GTPγS: -2.38
  ΔLogR pERK: -0.37
  ΔLogR β-AR: -0.55
  RE GIRK: 0.004
  RE GTPγS: 0.004
  RE pERK: 0.43
  RE β-AR: 0.28
[3]
  CL microsomes mouse: 254 µL/min/mg protein

## CCCCC/C=C\C/C=C\C/C=C\C/C=C\CCCC(=O)OC(CO)CO [2-AG, 2-arachidonoyl glycerol]
hCB2R [1]; [5]
  Emax: 100 ± 2%
hCB1R
  Emax: 111 ± 10%
hCB2R [2]
  GIRK-GTPγS bias factor (BF): 154.53
  GIRK-GTPγS ΔΔlogR: 2.19 ± 0.44
  GIRK-cAMP bias factor (BF): 178.65
  GIRK-cAMP ΔΔlogR: 2.25 ± 0.21
  GTPγS-cAMP bias factor (BF): 1.16
  GTPγS-cAMP ΔΔlogR: 0.06 ± 0.46
  LogR GIRK: 6.40
  LogR GTPγS: 4.63
  LogR cAMP: 6.99
  LogR pERK: 6.37
  LogR β-AR: 5.9
  pERK-GIRK bias factor (BF): 0.06
  pERK-GIRK ΔΔlogR: -1.2 ± 0.29
  pERK-GTPγS bias factor (BF): 9.68
  pERK-GTPγS ΔΔlogR: 0.99 ± 0.5
  pERK-cAMP bias factor (BF): 11.19
  pERK-cAMP ΔΔlogR: 1.05 ± 0.31
  β-AR-GIRK bias factor (BF): 0.07
  β-AR-GIRK ΔΔlogR: -1.14 ± 0.19
  β-AR-GTPγS bias factor (BF): 11.27
  β-AR-GTPγS ΔΔlogR: 1.05 ± 0.45
  β-AR-cAMP bias factor (BF): 13.03
  β-AR-cAMP ΔΔlogR: 1.12 ± 0.23
  β-AR-pERK bias factor (BF): 1.16
  β-AR-pERK ΔΔlogR: 0.07 ± 0.3
  ΔLogR GIRK: -1.47
  ΔLogR GTPγS: -3.65
  ΔLogR cAMP: -3.72
  ΔLogR pERK: -2.67
  ΔLogR β-AR: -2.6
  RE GIRK: 0.03
  RE GTPγS: 0.0002
  RE cAMP: 0.0002
  RE pERK: 0.002
  RE β-AR: 0.003

## CCCCC/C=C\C/C=C\C/C=C\C/C=C\CCCC(=O)NCCO [Anandamide, N-arachidonoylethanolamine]
hCB2R [1]; [5]
  Emax: 51 ± 5%
hCB2R [2]
  GIRK-GTPγS bias factor (BF): 2.57
  GIRK-GTPγS ΔΔlogR: 0.41 ± 0.65
  GIRK-cAMP bias factor (BF): 26.36
  GIRK-cAMP ΔΔlogR: 1.42 ± 0.34
  GTPγS-cAMP bias factor (BF): 10.26
  GTPγS-cAMP ΔΔlogR: 1.01 ± 0.41
  LogR GIRK: 4.53
  LogR GTPγS: 4.54
  LogR cAMP: 5.96
  LogR pERK: 6.03
  LogR β-AR: 5.54
  pERK-GIRK bias factor (BF): 2.14
  pERK-GIRK ΔΔlogR: 0.33 ± 0.43
  pERK-GTPγS bias factor (BF): 5.50
  pERK-GTPγS ΔΔlogR: 0.74 ± 0.66
  pERK-cAMP bias factor (BF): 56.36
  pERK-cAMP ΔΔlogR: 1.75 ± 0.37
  β-AR-GIRK bias factor (BF): 2.37
  β-AR-GIRK ΔΔlogR: 0.38 ± 0.37
  β-AR-GTPγS bias factor (BF): 6.10
  β-AR-GTPγS ΔΔlogR: 0.79 ± 0.62
  β-AR-cAMP bias factor (BF): 62.52
  β-AR-cAMP ΔΔlogR: 1.80 ± 0.29
  β-AR-pERK bias factor (BF): 1.11
  β-AR-pERK ΔΔlogR: 0.04 ± 0.39
  ΔLogR GIRK: -3.33
  ΔLogR GTPγS: -3.74
  ΔLogR cAMP: -4.76
  ΔLogR pERK: -3 ± 0.32
  ΔLogR β-AR: -2.96
  RE GIRK: 0.005
  RE GTPγS: 0.0002
  RE cAMP: 0.00002
  RE pERK: 0.001
  RE β-AR: 0.001
hGPR55; β-arrestin recruitment, read-out: GPR55 pEC50 (± SEM) (converted)
  EC50: > 10 µM

## CCCCCCC(C)(C)c1cc(OC)c([C@@H]2C=C(CO)[C@@H]3C[C@H]2C3(C)C)c(OC)c1 [HU308]
hCB2R [1]; AtT20, read-out: Emax ± SEM GIRK hCB2R
  Emax: 82 ± 6%
Rat recombinant TRPM8; vs icilin 0.25μM
  IC50: > 100 µM
[4]
  IC50: > 5 µM
Beta 1 (h)
  inhibition at 10 µM: -11%
hCB1R
  EC50: > 100 µM
  Emax: 18 ± 4%
hCB2R [2]
  GIRK-GTPγS bias factor (BF): 0.56
  GIRK-GTPγS ΔΔlogR: -0.26
  GIRK-cAMP bias factor (BF): 4.33
  GIRK-cAMP ΔΔlogR: 0.64 ± 0.17
  GTPγS-cAMP bias factor (BF): 7.78
  GTPγS-cAMP ΔΔlogR: 0.89 ± 0.30
  LogR GIRK: 6.281
  LogR GTPγS: 6.95
  LogR cAMP: 8.49
  LogR pERK: 7.55
  LogR β-AR: 7.72
  pERK-GIRK bias factor (BF): 1.25
  pERK-GIRK ΔΔlogR: 0.1 ± 0.3
  pERK-GTPγS bias factor (BF): 0.70
  pERK-GTPγS ΔΔlogR: -0.16
  pERK-cAMP bias factor (BF): 5.42
  pERK-cAMP ΔΔlogR: 0.73 ± 0.27
  β-AR-GIRK bias factor (BF): 6.37
  β-AR-GIRK ΔΔlogR: 0.80 ± 0.19
  β-AR-GTPγS bias factor (BF): 3.54
  β-AR-GTPγS ΔΔlogR: 0.55 ± 0.32
  β-AR-cAMP bias factor (BF): 27.16
  β-AR-cAMP ΔΔlogR: 1.43 ± 0.16
  β-AR-pERK bias factor (BF): 5.08
  β-AR-pERK ΔΔlogR: 0.71 ± 0.29
  ΔLogR GIRK: -1.58
  ΔLogR GTPγS: -1.33
  ΔLogR cAMP: -2.22
  ΔLogR pERK: -1.48
  ΔLogR β-AR: -0.78
  RE GIRK: 0.03
  RE GTPγS: 0.05
  RE cAMP: 0.006
  RE pERK: 0.03
  RE β-AR: 0.17
Rat recombinant TRPV3
  TRPV3 Efficacy (% ionomycin 4μM): < 10%
  IC50: > 100 µM
Rat recombinant TRPV4
  TRPV4 Efficacy (% ionomycin 4μM): < 10%
  IC50: > 100 µM
Mu (MOP) (h)
  inhibition at 10 µM: 7%
hGPR55
  EC50: > 10 µM
hGPR55; read-out: GPR55 Emax ± SEM (%) or % effect at 10 µM
  Emax at 10 µM: -6 ± 5%

## Cc1c(C(=O)NN2CCCCC2)nn(-c2ccc(Cl)cc2Cl)c1-c1ccc(Cl)cc1 [SR141716A]
Rat recombinant TRPM8; icilin concentration not given
  IC50: 0.041 ± 0.0109 µM
[4]; FAAH-deficient cells
  IC50: 3.5 µM
Rat recombinant TRPV3
  TRPV3 Efficacy (% ionomycin 4μM): 38.9%
  IC50: 3.4 ± 0.4 µM
Rat recombinant TRPV3; read-out: TRPV3 Potency EC50
  EC50: 0.85 µM
Rat recombinant TRPV4
  TRPV4 Efficacy (% ionomycin 4μM): < 10%
  IC50: 2 ± 0.1 µM
